Test results taken from ChEMBL document CHEMBL5724806, “Unraveling interindividual differences and functional consequences of gut microbial metabolism of immunosuppressants” (2024).

Columns and labels:
Assay type in all cases: ADME
[1] = (§1) The drug is tested on Actinomyces naeslundi strain: DSM43013 for biotransformation under anaerobic condition. The drug concentrations were measured over 6 timepoints collected between 0 and 12 hours of incubation by liquid-chromatography-coupled mass spectrometry (LC–MS); design: dose 5 uM, timepoint 0, 1.5, 3, 6, 9, 12 hours; settings: actinomyces naeslundii, 5 µM
[2] = The drug is tested on Alloscardovia omnicolens strain: DSM21503 for biotransformation under anaerobic condition. The drug concentrations were measured over 6 timepoints collected between 0 and 12 hours of incubation by liquid-chromatography-coupled mass spectrometry (LC–MS); design: dose 5 uM, timepoint 0, 1.5, 3, 6, 9, 12 hours; settings: 5 µM
[3] = The drug is tested on Bifidobacterium longum strain: DSM20088 for biotransformation under anaerobic condition. The drug concentrations were measured over 6 timepoints collected between 0 and 12 hours of incubation by liquid-chromatography-coupled mass spectrometry (LC–MS); design: dose 5 uM, timepoint 0, 1.5, 3, 6, 9, 12 hours; settings: 5 µM
[4] = The drug is tested on Collinsella aerofaciens strain: DSM3979 for biotransformation under anaerobic condition. The drug concentrations were measured over 6 timepoints collected between 0 and 12 hours of incubation by liquid-chromatography-coupled mass spectrometry (LC–MS); design: dose 5 uM, timepoint 0, 1.5, 3, 6, 9, 12 hours; settings: 5 µM
[5] = The drug is tested on Bacteroides xylanisolvens strain: HM 722 for biotransformation under anaerobic condition. The drug concentrations were measured over 6 timepoints collected between 0 and 12 hours of incubation by liquid-chromatography-coupled mass spectrometry (LC–MS); design: dose 5 uM, timepoint 0, 1.5, 3, 6, 9, 12 hours; settings: 5 µM
[6] = The drug is tested on Blautia hansenii strain: DSM20583 for biotransformation under anaerobic condition. The drug concentrations were measured over 6 timepoints collected between 0 and 12 hours of incubation by liquid-chromatography-coupled mass spectrometry (LC–MS); design: dose 5 uM, timepoint 0, 1.5, 3, 6, 9, 12 hours; settings: 5 µM
[7] = The drug is tested on Clostridium bolteae strain: DSM15670 for biotransformation under anaerobic condition. The drug concentrations were measured over 6 timepoints collected between 0 and 12 hours of incubation by liquid-chromatography-coupled mass spectrometry (LC–MS); design: dose 5 uM, timepoint 0, 1.5, 3, 6, 9, 12 hours; settings: enterocloster bolteae, 5 µM
[8] = The drug is tested on Clostridium ramosum strain: DSM1402 for biotransformation under anaerobic condition. The drug concentrations were measured over 6 timepoints collected between 0 and 12 hours of incubation by liquid-chromatography-coupled mass spectrometry (LC–MS); design: dose 5 uM, timepoint 0, 1.5, 3, 6, 9, 12 hours; settings: thomasclavelia ramosa, 5 µM
[9] = The drug is tested on Eubacterium hallii strain: DSM3353 for biotransformation under anaerobic condition. The drug concentrations were measured over 6 timepoints collected between 0 and 12 hours of incubation by liquid-chromatography-coupled mass spectrometry (LC–MS); design: dose 5 uM, timepoint 0, 1.5, 3, 6, 9, 12 hours; settings: anaerobutyricum hallii, 5 µM
[10] = The drug is tested on Gemella haemolysans strain: DSM107751 for biotransformation under anaerobic condition. The drug concentrations were measured over 6 timepoints collected between 0 and 12 hours of incubation by liquid-chromatography-coupled mass spectrometry (LC–MS); design: dose 5 uM, timepoint 0, 1.5, 3, 6, 9, 12 hours; settings: 5 µM
[11] = The drug is tested on Gemella morbillorum strain: DSM20572 for biotransformation under anaerobic condition. The drug concentrations were measured over 6 timepoints collected between 0 and 12 hours of incubation by liquid-chromatography-coupled mass spectrometry (LC–MS); design: dose 5 uM, timepoint 0, 1.5, 3, 6, 9, 12 hours; settings: 5 µM
[12] = The drug is tested on Roseburia intestinalis strain: DSM14610 for biotransformation under anaerobic condition. The drug concentrations were measured over 6 timepoints collected between 0 and 12 hours of incubation by liquid-chromatography-coupled mass spectrometry (LC–MS); design: dose 5 uM, timepoint 0, 1.5, 3, 6, 9, 12 hours; settings: 5 µM
[13] = The drug is tested on Streptococcus salivarius strain: DSM20560 for biotransformation under anaerobic condition. The drug concentrations were measured over 6 timepoints collected between 0 and 12 hours of incubation by liquid-chromatography-coupled mass spectrometry (LC–MS); design: dose 5 uM, timepoint 0, 1.5, 3, 6, 9, 12 hours; settings: 5 µM
[14] = The drug is tested on Streptococcus sanguinis strain: DSM20567 for biotransformation under anaerobic condition. The drug concentrations were measured over 6 timepoints collected between 0 and 12 hours of incubation by liquid-chromatography-coupled mass spectrometry (LC–MS); design: dose 5 uM, timepoint 0, 1.5, 3, 6, 9, 12 hours; settings: 5 µM
[15] = The drug is tested on Escherichia coli strain: DSM27469 for biotransformation under anaerobic condition. The drug concentrations were measured over 6 timepoints collected between 0 and 12 hours of incubation by liquid-chromatography-coupled mass spectrometry (LC–MS); design: dose 5 uM, timepoint 0, 1.5, 3, 6, 9, 12 hours; settings: 5 µM
[16] = The drug is tested on Akkermansia muciniphila strain: DSM22959 for biotransformation under anaerobic condition. The drug concentrations were measured over 6 timepoints collected between 0 and 12 hours of incubation by liquid-chromatography-coupled mass spectrometry (LC–MS); design: dose 5 uM, timepoint 0, 1.5, 3, 6, 9, 12 hours; settings: 5 µM
[17] = (§2) The drug is tested on Actinomyces graevenitzii strain: DSM15540 for biotransformation under microaerobic condition. The drug concentrations were measured over 6 timepoints collected between 0 and 12 hours of incubation by liquid-chromatography-coupled mass spectrometry (LC–MS); design: dose 5 uM, timepoint 0, 1.5, 3, 6, 9, 12 hours; settings: 5 µM
[18] = The drug is tested on Gemella haemolysans strain: DSM107751 for biotransformation under microaerobic condition. The drug concentrations were measured over 6 timepoints collected between 0 and 12 hours of incubation by liquid-chromatography-coupled mass spectrometry (LC–MS); design: dose 5 uM, timepoint 0, 1.5, 3, 6, 9, 12 hours; settings: 5 µM
[19] = The drug is tested on Lactobacillus paracasei strain: ATCC27092 for biotransformation under microaerobic condition. The drug concentrations were measured over 6 timepoints collected between 0 and 12 hours of incubation by liquid-chromatography-coupled mass spectrometry (LC–MS); design: dose 5 uM, timepoint 0, 1.5, 3, 6, 9, 12 hours; settings: lacticaseibacillus paracasei, 5 µM
[20] = The drug is tested on Escherichia coli strain: DSM27469 for biotransformation under microaerobic condition. The drug concentrations were measured over 6 timepoints collected between 0 and 12 hours of incubation by liquid-chromatography-coupled mass spectrometry (LC–MS); design: dose 5 uM, timepoint 0, 1.5, 3, 6, 9, 12 hours; settings: 5 µM
[21] = as §1, with “the gut metagenome community of A-05 with ENA study accession number: PRJEB31790” for “Actinomyces naeslundi strain: DSM43013”, “7” for “6”; design: dose 5 uM, timepoint 0, 0.75, 1.5, 3, 6, 9, 12 hours; settings: 5 µM
[22] = as §1, with “the gut metagenome community of A-10 with ENA study accession number: PRJEB31790” for “Actinomyces naeslundi strain: DSM43013”, “7” for “6”; design: dose 5 uM, timepoint 0, 0.75, 1.5, 3, 6, 9, 12 hours; settings: 5 µM
[23] = as §1, with “the gut metagenome community of P-01 with ENA study accession number: PRJEB31790” for “Actinomyces naeslundi strain: DSM43013”, “7” for “6”; design: dose 5 uM, timepoint 0, 0.75, 1.5, 3, 6, 9, 12 hours; settings: 5 µM
[24] = as §1, with “the gut metagenome community of P-02 with ENA study accession number: PRJEB31790” for “Actinomyces naeslundi strain: DSM43013”, “7” for “6”; design: dose 5 uM, timepoint 0, 0.75, 1.5, 3, 6, 9, 12 hours; settings: 5 µM
[25] = as §1, with “the gut metagenome community of T-04 with ENA study accession number: PRJEB31790” for “Actinomyces naeslundi strain: DSM43013”, “7” for “6”; design: dose 5 uM, timepoint 0, 0.75, 1.5, 3, 6, 9, 12 hours; settings: 5 µM
[26] = as §2, with “the gut metagenome community of A-02 with ENA study accession number: PRJEB31790” for “Actinomyces graevenitzii strain: DSM15540”, “7” for “6”; design: dose 5 uM, timepoint 0, 0.75, 1.5, 3, 6, 9, 12 hours; settings: 5 µM
[27] = as §2, with “the gut metagenome community of A-04 with ENA study accession number: PRJEB31790” for “Actinomyces graevenitzii strain: DSM15540”, “7” for “6”; design: dose 5 uM, timepoint 0, 0.75, 1.5, 3, 6, 9, 12 hours; settings: 5 µM
[28] = as §2, with “the gut metagenome community of A-08 with ENA study accession number: PRJEB31790” for “Actinomyces graevenitzii strain: DSM15540”, “7” for “6”; design: dose 5 uM, timepoint 0, 0.75, 1.5, 3, 6, 9, 12 hours; settings: 5 µM
[29] = as §2, with “the gut metagenome community of P-02 with ENA study accession number: PRJEB31790” for “Actinomyces graevenitzii strain: DSM15540”, “7” for “6”; design: dose 5 uM, timepoint 0, 0.75, 1.5, 3, 6, 9, 12 hours; settings: 5 µM
[30] = as §2, with “the gut metagenome community of P-04 with ENA study accession number: PRJEB31790” for “Actinomyces graevenitzii strain: DSM15540”, “7” for “6”; design: dose 5 uM, timepoint 0, 0.75, 1.5, 3, 6, 9, 12 hours; settings: 5 µM

Measured: Bacterial Biotransformation

C=CC[C@@H]1/C=C(\C)C[C@H](C)C[C@H](OC)[C@H]2O[C@@](O)(C(=O)C(=O)N3CCCC[C@H]3C(=O)O[C@H](/C(C)=C/[C@@H]3CC[C@@H](O)[C@H](OC)C3)[C@H](C)[C@@H](O)CC1=O)[C@H](C)C[C@@H]2OC.O [TACROLIMUS]
Compound NOT metabolized: [1] | [2] | [3] | [5] | [7] | [8] | [10] | [11] | [13] | [14] | [15] | [16] | [17] | [18] | [19] | [20] | [21] | [23] | [24] | [25] | [29] | [30]
Compound metabolized: [4] | [6] | [9] | [12] | [22] | [26] | [27] | [28]
